Reference: patent US20240066027A1 (DOMAIN THERAPEUTICS, priority 2020, published 2024)
pIC50: −log10 of the molar value.

Legend:
[1] = target: T1, human PAR-2 (hPAR-2) receptor expressed in HEK-293 T cells in an endogenous manner (Homo sapiens, UniProt P55085); experiment: In vitro human PAR-2 functional antagonist activity using calcium assays (Fluo4AM, FLIPR Tetra); format: cell-based; settings: HEK-293 T cells stimulated by an EC80 of the 2-Furoyl-LIGRLO-NH2 peptide after 10 min incubation with compound; 20 concentrations, duplicate, two independent experiments
T1 construct: human PAR-2 (hPAR-2) receptor expressed in HEK-293 T cells in an endogenous manner; endogenous in cells; host or cells: HEK-293 T cells
T1 sequence (P55085 26-397): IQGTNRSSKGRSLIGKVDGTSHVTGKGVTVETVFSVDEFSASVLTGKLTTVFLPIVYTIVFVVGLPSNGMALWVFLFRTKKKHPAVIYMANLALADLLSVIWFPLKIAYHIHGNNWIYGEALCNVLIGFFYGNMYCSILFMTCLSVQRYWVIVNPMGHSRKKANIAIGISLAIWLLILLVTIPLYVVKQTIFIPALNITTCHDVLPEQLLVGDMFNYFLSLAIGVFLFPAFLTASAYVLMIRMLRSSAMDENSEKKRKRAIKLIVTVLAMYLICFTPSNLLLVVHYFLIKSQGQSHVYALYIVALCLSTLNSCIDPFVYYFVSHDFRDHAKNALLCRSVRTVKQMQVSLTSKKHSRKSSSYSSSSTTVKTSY
Summary of the method: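 Fluo4AM-loaded HEK-293 T cells were exposed to compound for 10 min to read agonist effect. They were then stimulated with an EC80 of 2-Furoyl-LIGRLO-NH2 and intracellular calcium was recorded for 5 more min on FLIPR. Antagonism was scored against buffer basal and EC80 agonist-alone signals.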

SMILES | pIC50 [1] | melting point
CC(C)Cn1cc(-c2cncnc2)c2ccc(C(=O)N3CCNC(=O)C3(C)C)nc21 [Example 36, 4-(1-isobutyl-3-(pyrimidin-5-yl)-1H-pyrrolo[2,3-b]pyridine-6-carbonyl)-3,3-dimethylpiperazin-2-one] | < 5.00 | 185 to 190 °C
CC(C)Cn1cc(-c2ccncc2)c2ccc(C(=O)N3CCNC(=O)C3(C)C)nc21 [Example 37, 4-(1-isobutyl-3-(pyridin-4-yl)-1H-pyrrolo[2,3-b]pyridine-6-carbonyl)-3,3-dimethylpiperazin-2-one] | < 5.00 | 200 to 210 °C
CC(C)Cn1cc(-c2ccc(C(F)(F)F)nc2)c2ccc(C(=O)N3CCNC(=O)C3(C)C)nc21 [Example 43, 4-(1-isobutyl-3-(6-(trifluoromethyl)pyridin-3-yl)-1H-pyrrolo[2,3-b]pyridine-6-carbonyl)-3,3-dimethylpiperazin-2-one] | 5.00 to 7.70 | > 250 °C
CC(C)Cn1cc(-c2cnn(C)c2)c2ccc(C(=O)N3CCNC(=O)C3(C)C)nc21 [Example 44, 4-(1-isobutyl-3-(1-methyl-1H-pyrazol-4-yl)-1H-pyrrolo[2,3-b]pyridine-6-carbonyl)-3,3-dimethylpiperazin-2-one] | < 5.00 | > 250 °C
CC(C)Cn1cc(C2=CCOCC2)c2ccc(C(=O)N3CCNC(=O)C3(C)C)nc21 [Example 45, 4-(3-(3,6-dihydro-2H-pyran-4-yl)-1-isobutyl-1H-pyrrolo[2,3-b]pyridine-6-carbonyl)-3,3-dimethylpiperazin-2-one] | < 5.00 | 225 to 230 °C
CC(C)(C)n1cc(-c2ccc(Cl)c(F)c2)c2ccc(C(=O)N3CCS(=O)(=O)CC3)nc21 [Example 214, (1-(tert-butyl)-3-(4-chloro-3-fluorophenyl)-1H-pyrrolo[2,3-b]pyridin-6-yl)(1,1-dioxidothiomorpholino)methanone] | 5.00 to 7.70 | –
CC1(C)CN(C(=O)CCCCCCC(=O)O)CCN1C(=O)c1ccc2c(-c3ccc(Cl)c(F)c3)cn(C(C)(C)C)c2n1 [Example 215, 8-(4-(1-(tert-butyl)-3-(4-chloro-3-fluorophenyl)-1H-pyrrolo[2,3-b]pyridine-6-carbonyl)-3,3-dimethylpiperazin-1-yl)-8-oxooctanoic acid] | > 7.70 | –
CC(C)(C)c1cn(-c2ccc(Cl)c(F)c2)c2ccc(C(=O)N3CCNC(=O)C3(C)C)nc12 [Example 221, 4-(3-(tert-butyl)-1-(4-chloro-3-fluorophenyl)-1H-pyrrolo[3,2-b]pyridine-5-carbonyl)-3,3-dimethylpiperazin-2-one] | > 7.70 | –
CC(C)(C)c1cn(-c2ccc(Cl)c(F)c2)c2ccc(C(=O)N3CCC(CC(=O)O)CC3)nc12 [Example 222, 2-(1-(3-(tert-butyl)-1-(4-chloro-3-fluorophenyl)-1H-pyrrolo[3,2-b]pyridine-5-carbonyl)piperidin-4-yl)acetic acid] | < 5.00 | –
CC(C)Cn1cc(-c2ccc3c(c2)OCO3)c2ccc(C(=O)N3CCNC(=O)C3(C)C)nc21 [Example 223, 4-(3-(benzo[d][1,3]dioxol-5-yl)-1-isobutyl-1H-pyrrolo[2,3-b]pyridine-6-carbonyl)-3,3-dimethylpiperazin-2-one] | 5.00 to 7.70 | –
CC(C)Cn1cc(-c2cc3ccccc3o2)c2ccc(C(=O)N3CCNC(=O)C3(C)C)nc21 [Example 224, 4-(3-(benzofuran-2-yl)-1-isobutyl-1H-pyrrolo[2,3-b]pyridine-6-carbonyl)-3,3-dimethylpiperazin-2-one] | 5.00 to 7.70 | –
CC(C)Cn1cc(-c2cc3cc(F)ccc3[nH]2)c2ccc(C(=O)N3CCNC(=O)C3(C)C)nc21 [Example 225, 4-(3-(5-fluoro-1H-indol-2-yl)-1-isobutyl-1H-pyrrolo[2,3-b]pyridine-6-carbonyl)-3,3-dimethylpiperazin-2-one] | 5.00 to 7.70 | –
CC(C)Cn1cc(-c2ccc3ccccc3c2)c2ccc(C(=O)N3CCNC(=O)C3(C)C)nc21 [Example 226, 4-(1-isobutyl-3-(naphthalen-2-yl)-1H-pyrrolo[2,3-b]pyridine-6-carbonyl)-3,3-dimethylpiperazin-2-one] | 5.00 to 7.70 | –
CC(C)Cc1nn(-c2ccc(Cl)c(F)c2)c2ccc(C(=O)N3CCNC(=O)C3(C)C)cc12 [Example 228, 4-(1-(4-chloro-3-fluorophenyl)-3-isobutyl-1H-indazole-5-carbonyl)-3,3-dimethylpiperazin-2-one] | 5.00 to 7.70 | –

Next, values leading:

pIC50 [1] | melting point | SMILES
> 7.70 | – | Cc1cc(N2CCN(C(=O)c3ccc4c(-c5ccc(Cl)c(F)c5)cn(C(C)(C)C)c4n3)C(C)(C)C2)cc(C)c1C(=O)O [Example 210, 4-(4-(1-(tert-butyl)-3-(4-chloro-3-fluorophenyl)-1H-pyrrolo[2,3-b]pyridine-6-carbonyl)-3,3-dimethylpiperazin-1-yl)-2,6-dimethylbenzoic acid]
> 7.70 | – | Cc1cc(N2CCN(C(=O)c3ccc4c(-c5ccc(Cl)c(F)c5)cn(C[C@@H]5CCCO5)c4n3)C(C)(C)C2)nc(C)c1C(=O)O [Example 211, (S)-6-(4-(3-(4-chloro-3-fluorophenyl)-1-((tetrahydrofuran-2-yl)methyl)-1H-pyrrolo[2,3-b]pyridine-6-carbonyl)-3,3-dimethylpiperazin-1-yl)-2,4-dimethylnicotinic acid]
> 7.70 | – | Cc1cc(N2CCN(C(=O)c3ccc4c(-c5ccc(Cl)c(F)c5)cn(C[C@H]5CCCO5)c4n3)C(C)(C)C2)nc(C)c1C(=O)O [Example 212, (R)-6-(4-(3-(4-chloro-3-fluorophenyl)-1-((tetrahydrofuran-2-yl)methyl)-1H-pyrrolo[2,3-b]pyridine-6-carbonyl)-3,3-dimethylpiperazin-1-yl)-2,4-dimethylnicotinic acid]
< 5.00 | – | CCOC(=O)c1ccc(N2CCN(C(=O)c3ccn4c(-c5ccc(Cl)cc5)nc(C(C)(C)C)c4n3)C(C)(C)C2)nc1 [Example 216, ethyl 6-(4-(8-(tert-butyl)-6-(4-chlorophenyl)imidazo[1,5-a]pyrimidine-2-carbonyl)-3,3-dimethylpiperazin-1-yl)nicotinate]
5.00 to 7.70 | – | CC(C)(C)c1nc(-c2ccc(Cl)cc2)n2ccc(C(=O)N3CCN(c4ccc(C(=O)O)cn4)CC3(C)C)nc12 [Example 217, 6-(4-(8-(tert-butyl)-6-(4-chlorophenyl)imidazo[1,5-a]pyrimidine-2-carbonyl)-3,3-dimethylpiperazin-1-yl)nicotinic acid]
< 5.00 | – | CCOC(=O)c1ccc(N2CCN(C(=O)c3ccn4c(-c5ccc(Cl)cc5)nc(CC(C)C)c4c3)C(C)(C)C2)nc1 [Example 218, ethyl 6-(4-(3-(4-chlorophenyl)-1-isobutylimidazo[1,5-a]pyridine-7-carbonyl)-3,3-dimethylpiperazin-1-yl)nicotinate]
5.00 to 7.70 | – | CC(C)Cc1nc(-c2ccc(Cl)cc2)n2ccc(C(=O)N3CCN(c4ccc(C(=O)O)cn4)CC3(C)C)cc12 [Example 219, 6-(4-(3-(4-chlorophenyl)-1-isobutylimidazo[1,5-a]pyridine-7-carbonyl)-3,3-dimethylpiperazin-1-yl)nicotinic acid]
> 7.70 | – | Cc1cc(N2CCN(C(=O)c3ccc4c(-c5ccc(C(F)(F)F)c(F)c5)cn(C(C)(C)C)c4n3)C(C)(C)C2)nc(C)c1C(=O)O [Example 220, 6-(4-(1-(tert-butyl)-3-(3-fluoro-4-(trifluoromethyl)phenyl)-1H-pyrrolo[2,3-b]pyridine-6-carbonyl)-3,3-dimethylpiperazin-1-yl)-2,4-dimethylnicotinic acid]
